Experiment [1] addresses nucleotide binding site of rat anti-DNP antibody. The experiment is described as follows: Sandwich ELISA binding of biotin-linked indole-3-butyric acid to antigen-captured antibody. Conditions: fit of normalized fluorescent intensity, read-out: Kd (binding affinity). An excerpt: (§1) FIG. 2B illustrates a sandwich ELISA, in accordance with various embodiments;
(§2) HRP-streptavidin was used to bind the biotin, and a fluorescent substrate was used to quantify the amount of indole-3-butyric acid that was present on the surface.
(In general: ELISA stands for enzyme-linked immunosorbent assay.)

Experiment [2] deals with nucleotide binding site of chimeric human/mouse Rituximab. The experiment is described as above. The conditions noted are these: fit of normalized fluorescent intensity, read-out: Kd (binding affinity).
Text: as §1, §2

Experiment [3] addresses nucleotide binding site of mouse anti-FITC antibody. The description is as above. The conditions noted are these: fit of normalized fluorescent intensity, read-out: Kd (binding affinity).
Text: as §1, §2

The target in experiment [4] is nucleotide binding site of three different antibodies. Put plainly: Sandwich ELISA, summary over three antibodies. Here is the method: as §1, §2
Thus, the monovalent Kd values for the indole binding to the nucleotide binding site of three different antibodies ranged between 1-7 μM, showing a 7- to 50-fold enhancement in binding affinity over adenine.

In the case of `O=C(O)CCCc1c[nH]c2ccccc12` [indole-3-butyric acid], the Kd in experiment [1] is 1270 nM; in experiment [2], 1700 nM; in experiment [3], 6410 nM; in experiment [4] (range over three different antibodies, read-out: monovalent Kd values), 1000 to 7000 nM. Further, the “enhancement in binding affinity over adenine” value in experiment [4] (relative to adenine) was 7- to 50 fold.

Broadly, the Kd is a measure of binding affinity in units of concentration.
